Data published in patent US9937144B2, “Treatment of drug abuse by preventing GAPDH nitrosylation” (THE JOHNS HOPKINS UNIVERSITY, priority 2013, dated 2018).

How the values were obtained:
mice [1] = settings: for cocaine's locomotor activation, MAO-B inhibitor combined with cocaine: i.p. for 5 days, cocaine 30 mg/kg i.p., total beam breaks, FIGS. 4G and 4H
Procedure: Open-Field Test. Open-field assessments were conducted as described (Levine et al., 2011; Maze et al., 2010) with brief modifications. The open field is a square arena with the dimensions 47 cm 3 47 cm with a 38.1 cm high clear plastic wall. Activity chambers were computer interfaced for data sampling. Sixteen infrared photobeams in each direction (16×16), 2.77 cm spacing, were used to record movement. The San Diego PAS software recorded the total number of beam breaks, as well as the beam break's location in the center and peripheral areas.
Mice were divided in 5 groups (n=10-12 each). Each group of mice were injected (i.p.) with either CGP3466B or the MAO-B inhibitors deprenyl, rasagiline, lazabemide, and pargyline for 5 days. Mice were allowed to acclimate to the apparatus for 1 hr. After 60 min, mice received saline or cocaine (30 mg/kg of cocaine i.p.), and were returned to the open-field apparatus for a subsequent 75 min in which their activity was recorded. All data was measured in 5 min intervals and aggregated as necessary. Beam breaks or distance traveled for 20 min following cocaine/saline intraperitoneal injection after the first stage of testing were used to determine immediate peak locomotor response from cocaine injection. In between testing of mice, the arena was wiped with Vimoba cleaning solution. Mice were tested at the same time every day in order to minimize any variation due to circadian rhythm changes.

[2] = target: T1, nitrosylation of GAPDH (SNO-GAPDH) (Mus musculus, UniProt P16858); assay: S-nitrosylation biotin switch assay in cocaine-treated primary cortical neurons; format: cell-based; settings: 16 hr, deprenyl 2 nM, FIG. 4A
T1 sequence (P16858 whole entry): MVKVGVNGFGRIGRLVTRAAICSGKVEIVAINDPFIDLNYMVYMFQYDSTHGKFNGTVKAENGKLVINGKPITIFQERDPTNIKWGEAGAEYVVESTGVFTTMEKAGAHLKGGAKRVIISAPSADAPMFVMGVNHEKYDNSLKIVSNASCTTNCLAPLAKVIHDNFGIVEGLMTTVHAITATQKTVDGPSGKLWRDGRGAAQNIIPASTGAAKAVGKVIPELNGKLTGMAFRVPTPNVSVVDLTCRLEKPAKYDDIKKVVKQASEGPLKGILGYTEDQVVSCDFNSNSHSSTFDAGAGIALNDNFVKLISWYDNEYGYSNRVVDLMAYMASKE
From the text: S-nitrosvlation biotin switch assay.

striatum = assay: TUNEL assay of cell death in striatum induced by cocaine; format: in vivo, mice; settings: for cocaine induced cell death in striatum: MAO-B inhibitors with cocaine, FIG. 9B
Procedure: (§1) TUNEL assay. Primary neurons were grown on coverslips with a density of […] per 12-well. Cells were treated with deprenyl (2 μM), rasagaline (10 μM), lazabemide (10 μM) or pargyline (10 μM) for 16 hr and cell death was measured by TUNEL assays using TUNEL enzyme (Roche) and TUNEL label (Roche) following the manufacturer's instructions (Kickstein et al., 2010). To analysis cell death induced by neurotoxic dose of cocaine, we used TUNEL apoptosis detection kit (Millipore) using manufacturer's protocol (Lathia et al., 2010). Positive nuclei were counted in 30 fields (×400) for each slide.

mice [3] = assay: Rotarod performance; format: in vivo; settings: for rotarod performance with cocaine: 5 days: deprenyl 0.25, rasagiline 2.5, pargyline 50, lazabemide 50 mg/kg, then cocaine 50 mg/kg, FIG. 9C
Procedure: Rotarod Performance. The test was performed as described previously (Xi et al., 2011) with minor modifications. A four-station mouse rotarod device (AccuScan Instruments) was used to study the effects of CGP3466B, Deprenyl, Rasagiline, Lazabemide and Pargyline on cocaine induced operant locomotion in mice. The speed of rotation of the rotarod was increased from 4 to 32 rpm over 7 min.
Mice were divided into 5 groups (n=8). For 5 days prior to testing mice received one dose of deprenyl (0.25 mg/kg), rasagiline (2.5 mg/kg), pargyline (50 mg/kg), lazabemide (50 mg/kg), or saline followed by a high dose of cocaine (50 mg/kg). Mice were placed on the rotarod at a starting speed of 4 rpm, and the speed of the rotarod was increased to 32 rpm over the course of 7 min. This was repeated for a total of three trials in a day, and the latency at which the mice fell off the rotarod was recorded. Mice were tested at the same time every day in order to minimize any variation due to circadian rhythm changes.

primary cortical neurons = settings: TUNEL, 16 hr; deprenyl 2 μM, rasagiline, lazabemide, pargyline 10 μM; FIG. 4B
Procedure: as §1

GAPDH nitrosylation [4] = target: GAPDH nitrosylation (Homo sapiens, UniProt P04406); settings: cited from earlier work; for GAPDH nitrosylation in vitro: as reported earlier (Hara et al., 2006)
GAPDH nitrosylation (Homo sapiens, UniProt P04406), sequence (P04406 whole entry): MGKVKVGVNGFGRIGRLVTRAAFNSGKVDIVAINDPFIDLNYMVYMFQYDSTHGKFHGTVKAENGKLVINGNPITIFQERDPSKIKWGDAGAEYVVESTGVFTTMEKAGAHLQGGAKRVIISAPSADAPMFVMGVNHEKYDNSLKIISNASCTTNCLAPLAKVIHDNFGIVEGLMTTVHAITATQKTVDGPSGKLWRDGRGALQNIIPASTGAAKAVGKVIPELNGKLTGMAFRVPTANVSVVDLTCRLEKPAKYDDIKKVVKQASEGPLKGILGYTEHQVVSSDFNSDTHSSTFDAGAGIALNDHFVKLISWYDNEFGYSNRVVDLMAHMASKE

GAPDH nitrosylation [5] = target: T2, GAPDH nitrosylation (Mus musculus, UniProt P16858); settings: as reported earlier (Hara et al., 2006); cited from earlier work
T2 construct: in the brains of mice treated with the neurotoxic agent; host or cells: mouse brain
T2 sequence (P16858 whole entry): as the sequence (P16858 whole entry) above

mice [6] = assay: Conditioned place preference; format: in vivo
Procedure: Conditioned Place Preference. The test was performed as described previously (Levine et al., 2011; Maze et al., 2010; Xi et al., 2011) with minor modifications. Two groups of wild-type mice were used to study the effect of CGP 3466B (0.15 mg/kg) on cocaine-(7 mg/kg) induced conditioned place preference or aversion. A three-chamber place preference apparatus was used. This apparatus consisted of two large side compartments and one small central compartment, which separated the large compartments. Two of the large compartments had different visual and tactile cues. One of the large compartments contained a green wire mesh floor. The second large compartment contained a cream-colored rubber floor. […]
Wild mice were divided into two groups. […] Experimental software (Any-Maze Video Tracking System v. 4.72) measured the amount of time each mouse spent in each of the three compartments.
For the next 10 days (days 2-11), mice entered the conditioning stage of testing with one session per day. […] On the probe trial day (24 hr after the last conditioning session), mice were given an injection of saline then were allowed to freely explore the three compartments for 15 min the time spent in each of the compartments was recorded by computer software. CPP score was calculated as time spent in cocaine chamber minus the time spent in saline/CGP3466B treated chamber.

p53, PUMA = assay: p53 activation and PUMA induction in striatum after neurotoxic cocaine doses; format: in vivo, mice
Procedure: Sample Preparation from Cocaine-Injected Mice.
Chromatin immunoprecipitation (ChIP) assay.
Co-Immunoprecipitation. Striatum tissue were lysed in lysis buffer (50 mM Tris pH 7.4, 150 mM NaCl, 0.1% Chaps, 100 nM deferoxamine and 1 mM EDTA) and homogenized by passing through a 26-gauge needle. Crude lysates were cleared of insoluble debris by centrifugation at 14,000 g. IP buffer (50 mM Tris pH 7.4, 150 mM NaCl, 0.1% Chaps, 100 μM deferoxamine, 1 mM EDTA and 0.1 mg/ml BSA) was added to […] of cell lysates to bring samples to a total volume of 1 ml. Anti-Siah and anti-SUV39H1 antibody and 30 μl of protein G agarose were added and incubated on a rotator at 4° C. The protein G agarose was washed four times with lysis buffer and quenched with 30 μl of SDS sample buffer. Co-immunoprecipitates were resolved by SDS-PAGE and analyzed by western blotting with anti-GAPDH and anti-SUV39H1 antibodies.

Body weight of mice = format: in vivo; settings: FIG. 8B
GAPDH binding to Siah1 = GAPDH binding to Siah1 (Homo sapiens, UniProt P04406); settings: resultant of prevented GAPDH nitrosylation; cited from earlier work
GAPDH binding to Siah1, sequence (P04406 whole entry): as the sequence (P04406 whole entry) above

monoamine oxidase = settings: Hara et al., 2006; cited from earlier work
GAPDH = GAPDH (Mus musculus, UniProt P16858); assay: Nuclear translocation of GAPDH in striatum of cocaine-treated mice
GAPDH, sequence (P16858 whole entry): as the sequence (P16858 whole entry) above

[7] = target: T1, nitrosylation of GAPDH (SNO-GAPDH); assay: S-nitrosylation biotin switch assay on striatum lysates of cocaine-injected mice
[8] = system: SUV39H1, H3K9 trimethylation, c-fos; assay: Western blot/ChIP of striatum after behavioral-stimulant cocaine doses (SUV39H1, H3K9 trimethylation, c-fos)

SMILES: C#CCN[C@@H]1CCc2ccccc21 [rasagiline]
- cocaine's locomotor activation, MAO-B inhibitor combined with cocaine (mice [1]): greater locomotor stimulation than cocaine alone
- cocaine-induced nitrosylation of GAPDH in cortical cultures [2]: do not prevent
- cocaine induced cell death in striatum (striatum): do not rescue
- rotarod performance with cocaine (mice [3]): do not improve

SMILES: C#CCN(C)[C@H](C)Cc1ccccc1 [deprenyl, R-(−)-N-methyl-N-(prop-2-ynyl)-2-aminophenylpropane]
- cocaine's locomotor activation, MAO-B inhibitor combined with cocaine (mice [1]): significantly decreases
- cocaine-induced nitrosylation of GAPDH in cortical cultures [2]: prevents
- cell survival / cell death of primary cortical neurons (primary cortical neurons): no effect
- cocaine induced cell death in striatum (striatum): do not rescue
- rotarod performance with cocaine (mice [3]): do not improve
- GAPDH nitrosylation in vitro (GAPDH nitrosylation [4]): potently inhibits
- GAPDH nitrosylation in the brains of mice treated with MPTP (GAPDH nitrosylation [5]): potently inhibits

SMILES: C#CCN(C)CC1=Cc2ccccc2Oc2ccccc21 [CGP3466B, N-(dibenz(b,f)oxepin-10-ylmethyl)-N-methyl-N-prop-2-ynylamine]
- locomotor stimulation by cocaine (mice [1]; CGP3466B 0.15 mg/kg IP once a day for 5 days, cocaine on the fifth day, open field, FIG. 3H): substantially reduces
- basal locomotor activity (mice [1]; CGP3466B 0.15 mg/kg, no cocaine): no effect
- central or peripheral movement (mice [1]; mouse, in vivo): no adverse effects
- locomotor stimulation in nNOS knockout mice treated with cocaine (mice [1]; nNOS knockout mice, FIG. 3I): does not further decrease
- cocaine preference (conditioned place preference) (mice [6]; CGP3466B 0.15 mg/kg 2 hr before each conditioning injection, cocaine 7 mg/kg, FIG. 3J): reduced
- conditioned place preference, single dose only on the day of testing (mice [6]; mice conditioned in the absence of CGP3466B, FIG. 6D): failed to alter
- cocaine-induced nitrosylation of GAPDH in cortical cultures [2]: prevents
- induction of PUMA level (p53, PUMA; FIG. 5E): blocks
- activation of p53 (p53, PUMA; FIGS. 5C and 5D): blocks
- apoptosis (TUNEL) in striatum induced by cocaine (striatum; cocaine 30 and 50 mg/kg, chronic treatment with CGP3466B, FIG. 5F): markedly reduces
- increase of latency for falling off the rod (mice [3]; co-treatment with CGP3466B, cocaine 50 mg/kg, FIG. 5G): 2.5- to 3 fold
- body weight (Body weight of mice): no adverse effects
- GAPDH nitrosylation in vitro (GAPDH nitrosylation [4]): potently inhibits
- concentrations at which nitrosylation of GAPDH is prevented (GAPDH nitrosylation [4]): subnanomolar
- GAPDH binding to Siah1 (GAPDH binding to Siah1): inhibition
- monoamine oxidase inhibitory activity (monoamine oxidase): lack monoamine oxidase inhibitory activity
- GAPDH nitrosylation in the brains of mice treated with MPTP (GAPDH nitrosylation [5]): potently inhibits
- cocaine-elicited nuclear translocation of GAPDH (GAPDH; behavioral-stimulant doses of cocaine, FIG. 3C): prevents
- nuclear translocation of GAPDH at higher doses of cocaine (GAPDH; cocaine 30-50 mg/kg daily for 5 days, FIG. 5B): prevented
- stimulation of GAPDH nitrosylation in striatum elicited by cocaine ([7]; 0.15 mg/kg CGP3466B, behavioral-stimulant doses of cocaine (5-30 mg/kg), FIG. 7A): almost completely blocks
- nitrosylation of GAPDH in the striatum elicited by higher doses of cocaine ([7]; cocaine 30-50 mg/kg daily for 5 days with or without CGP3466B, FIG. 5A): abolished
- cocaine-elicited change of H3K9 trimethylation ([8]; FIG. 3E): prevented
- degradation of SUV39H1 ([8]; behavioral-stimulant doses of cocaine, FIG. 3D): blocks
- stimulation of c-fos expression ([8]; behavioral-stimulant doses of cocaine, FIGS. 3F-3G): blocks

SMILES: C#CCN(C)Cc1ccccc1 [pargyline]
- cocaine's locomotor activation, MAO-B inhibitor combined with cocaine (mice [1]): greater locomotor stimulation than cocaine alone
- cocaine-induced nitrosylation of GAPDH in cortical cultures [2]: do not prevent
- cocaine induced cell death in striatum (striatum): do not rescue
- rotarod performance with cocaine (mice [3]): do not improve

SMILES: NCCNC(=O)c1ccc(Cl)cn1 [lazabemide]
- cocaine's locomotor activation, MAO-B inhibitor combined with cocaine (mice [1]): greater locomotor stimulation than cocaine alone
- cocaine-induced nitrosylation of GAPDH in cortical cultures [2]: do not prevent
- cocaine induced cell death in striatum (striatum): do not rescue
- rotarod performance with cocaine (mice [3]): do not improve
